Results reported in patent US20170368181A1, “Polymeric Nanoparticle” (The Provost Fellows and Scholars of the College of the Holy …, priority 2010, published 2017).

Assays:
[1] = tested on: NR4A2 mRNA; assay: PGE2-induced NR4A2 mRNA in SW1353 cells, qRT-PCR; type: cell-based, human; conditions: PGE2 1 μM, 1 hour
Description: (§1) Cell assay: SW1353 human chondrocytes (ATCC) were maintained in RPMI 1640 medium supplemented with 10% Foetal Calf Serum, L-Glutamine and 1% antibiotics. SW1353 cells were seeded 2.5×10^5 cells per well into 6-well plates. After 24 hours media was replaced with serum free media (SFM) and incubated over night. sCT (10 μM) with either PGE2(1 μM) or IL-1β (10 ng/ml) were added to cells in SFM for 1 hour. Dexamethasone (Dex, 10 μM) was the positive control for the down-regulation of NR4A2. Untreated controls were treated in an identical manner, but with serum-free medium alone. RNA was isolated from SW1353 cells.
RNA Extraction: Media was removed from the cells and 1 mL of TRIzol® (Invitrogen) was added to each well. Cells were homogenised by pipetting the added TRIzol® up and down for 8-10 times. […] Pellet was then resuspended in an appropriate volume of RNASE/DNASE free water and RNA in each sample was quantified at A260. […]
Mix to be added to each reaction tube is 4 μL of 5× 1st Strand Buffer, 2 μL of 0.1 M DTT, 1 μL of RNase Out and 1 μL MMLV. […] NR4A and MMP1, 3, 9 and 13 levels were measured by qRT-PCR and expression levels were normalized to GAPDH levels.
SW1353 cells were treated with sCT alone or polymeric nanoparticles comprising hyaluronic acid, chitosan, and sCT and PGE2 for 1 hour. Total RNA was extracted and assayed for NR4A2 mRNA levels by quantitative RT-PCR. […]

[2] = tested on: MMP 13; assay: IL-1β-induced MMP 13 mRNA in SW1353 cells, qRT-PCR; type: cell-based, human
Description: as §1
Mix to be added to each reaction tube is 4 μL of 5× 1st Strand Buffer, 2 μL of 0.1 M DTT, 1 μL of RNase Out and 1 μL MMLV. Taq Cat# 10342-020 (this contains 0.1 M DTT, 5× 1st S. B.). NR4A and MMP1, 3, 9 and 13 levels were measured by qRT-PCR and expression levels were normalized to GAPDH levels.
Effects of sCT and the nanoparticle on MMP mRNA levels were also investigated. […] Both sCT, HA, and the polymeric nanoparticle down regulated MMP 13 by 47%, 31% and 88% (FIG. 6B). MMPs 1 and 3 were also down regulated. […] Dexamethasone, which is known to down regulate NR4A2 and is used for the treatment of rheumatoid arthritis, was used as a positive control in all experiments. […]

[3] = tested on: NR4A2; assay: NR4A2 expression in ankle joints of K/BxN sera-induced mice; type: in vivo, mouse; conditions: intra-peritoneal delivery
Text: On day 4 after K/BxN serum transfer, mice were sacrificed, and their hind paws above the knee joint were harvested for histology to assess the effects of drug treatments on inflammation and bone and cartilage degradation. The histology sections were stained with hematoxylin and eosin (H&E) and Saffarin O and scored blindly under 3 different categories (i) inflammation (synovitis infiltration and pannus formation), (ii) cartilage erosion and (iii) bone erosion. RNA was also isolated from both the ankle joint and knee joint tissue to measure expression of NR4A biomarkers.
RNA was isolated from the ankle joints of control and ‘inflamed’ K/BxN mice to measure expression of NR4A biomarkers. In K/BxN sera-induced mice with no treatment (therefore showing inflammation), high levels of NR4A1, NR4A2 and NR4A3 were over expressed, compared to naïve mice with no serum transfer (no inflammation (FIG. 20).
Expression of NR4A2 was measured in all groups (FIG. 21). […] Histological sections of the knee joint were scored by an observer blinded to the treatment under 3 different criteria (i) inflammation (synovitis infiltration and pannus formation), (ii) cartilage erosion and (iii) bone erosion on a scale of 0-3 (0, none; 1, minimal invasion of meniscus; 2, partial invasion of meniscus; 3, severe invasion of meniscus). […]

[4] = 20° C.; cited from earlier work

Substance: salmon calcitonin [sCT]
- inhibition of PGE2 induced NR4A2 transcript levels [1]: 49%
- down regulation of MMP 13 mRNA [2]: 47%
- NR4A2 expression in the ankle joints [3]: reduce NR4A2 expression
- water solubility [4]: about 1 mg/ml
